Results on 19 molecules are retold here after US12577206B2 (BRISTOL-MYERS SQUIBB COMPANY, priority 2020, dated 2026).

Bounds are passed on as bounds.

One assay deals with T1, human FPR2 (Homo sapiens, UniProt P25090).
T1 sequence (P25090 1-351): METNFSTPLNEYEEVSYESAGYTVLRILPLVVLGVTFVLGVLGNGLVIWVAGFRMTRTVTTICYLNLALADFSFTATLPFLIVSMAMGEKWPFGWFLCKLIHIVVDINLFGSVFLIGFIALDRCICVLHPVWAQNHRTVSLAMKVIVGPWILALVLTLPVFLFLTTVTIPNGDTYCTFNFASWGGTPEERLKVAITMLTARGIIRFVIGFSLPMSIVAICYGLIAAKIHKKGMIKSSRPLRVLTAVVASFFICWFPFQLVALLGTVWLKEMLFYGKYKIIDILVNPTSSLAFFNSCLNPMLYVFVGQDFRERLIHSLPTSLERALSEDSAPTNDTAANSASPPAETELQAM
The assay can be described thus: FPR2 cyclic adenosine monophosphate (cAMP) assay. The class given is cell-based. The following applies: CHO cells overexpressing human FPR2; forskolin 5 μM; inhibition of cAMP production; HTRF; read-out: hFPR2 cAMP2 EC50. Summed up: (§1)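 Gi-coupled activity is read as suppression of forskolin-stimulated cAMP (10 μM final for FPR1, 5 μM final for FPR2; IBMX 200 μM final) in recombinant CHO cells, 30 min incubation at rt, HTRF detection.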

The target in the next assay is T2, human FPR1 (Homo sapiens, UniProt P21462).
T2 sequence (P21462 1-350): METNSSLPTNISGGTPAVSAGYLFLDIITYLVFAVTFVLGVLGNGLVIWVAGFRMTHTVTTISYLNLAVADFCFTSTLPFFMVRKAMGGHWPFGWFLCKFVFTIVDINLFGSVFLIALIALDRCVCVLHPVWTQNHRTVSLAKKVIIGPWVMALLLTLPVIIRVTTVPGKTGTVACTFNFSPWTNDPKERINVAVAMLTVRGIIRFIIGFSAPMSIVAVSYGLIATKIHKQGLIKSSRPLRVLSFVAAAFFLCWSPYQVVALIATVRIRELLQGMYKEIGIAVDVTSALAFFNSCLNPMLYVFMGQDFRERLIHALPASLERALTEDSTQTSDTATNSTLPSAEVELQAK
The assay can be described thus: FPR1 cyclic adenosine monophosphate (cAMP) assay. The class given is cell-based. The following applies: CHO cells overexpressing human FPR1; forskolin 10 μM; inhibition of cAMP production; HTRF; read-out: hFPR1 cAMP2 EC50. In short, it runs like this: as §1
(cAMP levels reflect the balance of adenylyl cyclase and phosphodiesterase activity.)

Usually EC50 stands for the concentration at which the effect is half-maximal. Regarding `COc1cc(OC2CCOC2)nc(-n2c(=O)c(NC(=O)c3ccc(OC(F)F)cc3)c(-c3c(F)cc(OC)cc3F)n2C)c1` (centres unmarked) [Example 356, N-(5-(2,6-Difluoro-4-methoxyphenyl)-2-(4-methoxy-6-((tetrahydrofuran-3-yl)oxy)pyridin-2-yl)-1-methyl-3-oxo-2,3-dihydro-1H-pyrazol-4-yl)-4-(difluoromethoxy)benzamide], the half-maximal effective concentration (EC50) at human FPR2 is 5 nM; on human FPR1, > 10 µM.

`COc1cc(F)c(-c2c(NC(=O)c3ccc(OC(F)F)cc3)c(=O)n(-c3nc(C)ccc3C#N)n2C)c(F)c1` [Example 357, N-(2-(3-Cyano-6-methylpyridin-2-yl)-5-(2,6-difluoro-4-methoxyphenyl)-1-methyl-3-oxo-2,3-dihydro-1H-pyrazol-4-yl)-4-(difluoromethoxy)benzamide]: the EC50 on human FPR2 was 5 nM; at human FPR1, > 10 µM.

Regarding `COc1cc(F)c(-c2c(NC(=O)c3ccc(OC(F)F)cc3)c(=O)n(-c3nc(C(F)(F)F)ccc3OCC3(C)COC3)n2C)c(F)c1` [Example 358, N-(5-(2,6-Difluoro-4-methoxyphenyl)-1-methyl-2-(3-((3-methyloxetan-3-yl)methoxy)-6-(trifluoromethyl)pyridin-2-yl)-3-oxo-2,3-dihydro-1H-pyrazol-4-yl)-4-(difluoromethoxy)benzamide], the half-maximal effective concentration (EC50) on human FPR2 is 9 nM; on human FPR1, > 10 µM.

On to `COc1cc(F)c(-c2c(NC(=O)c3ccc(OC(F)F)cc3)c(=O)n(-c3cc(C)cc(OC4CCOC4)n3)n2C)c(F)c1` (centres unmarked) [Example 359, N-(5-(2,6-Difluoro-4-methoxyphenyl)-1-methyl-2-(4-methyl-6-((tetrahydrofuran-3-yl)oxy)pyridin-2-yl)-3-oxo-2,3-dihydro-1H-pyrazol-4-yl)-4-(difluoromethoxy)benzamide], for which the results for the EC50 at human FPR2 and on human FPR1 were 5 nM and > 10 µM, respectively.

Turning to `COc1cc(F)c(-c2c(NC(=O)c3ccc(OC(F)F)cc3)c(=O)n(-c3cc(C)cc(OC4CCOC4)n3)n2C)c(F)c1` (centres unmarked) [Example 360, N-(5-(2,6-Difluoro-4-methoxyphenyl)-1-methyl-2-(4-methyl-6-((tetrahydrofuran-3-yl)oxy)pyridin-2-yl)-3-oxo-2,3-dihydro-1H-pyrazol-4-yl)-4-(difluoromethoxy)benzamide], the concentration for a half-maximal effect (EC50) at human FPR2 was 4 nM; at human FPR1 it was > 10 µM.

For `COc1cc(F)c(-c2c(NC(=O)c3ccc(OC(F)F)cc3)c(=O)n(-c3cc(C)cc(C4CCN(C)CC4)n3)n2C)c(F)c1` [Example 361], the figures for the EC50 on human FPR2 and at human FPR1 were 1 nM and > 10 µM, respectively.

On to `COc1cc(F)c(-c2c(NC(=O)c3ccc(OC(F)F)cc3)c(=O)n(-c3cc(C)cc(C#N)n3)n2C)c(F)c1` [Example 362, N-(2-(6-Cyano-4-methylpyridin-2-yl)-5-(2,6-difluoro-4-methoxyphenyl)-1-methyl-3-oxo-2,3-dihydro-1H-pyrazol-4-yl)-4-(difluoromethoxy)benzamide], for which the concentration for a half-maximal effect (EC50) on human FPR2 was 10 nM; at human FPR1, > 10 µM.

Take `COc1cc(C2CCN(C)CC2)nc(-n2c(=O)c(NC(=O)c3ccc(OC(F)F)cc3)c(-c3c(F)cc(OC)cc3F)n2C)c1` [Example 363, N-(5-(2,6-Difluoro-4-methoxyphenyl)-2-(4-methoxy-6-(1-methylpiperidin-4-yl)pyridin-2-yl)-1-methyl-3-oxo-2,3-dihydro-1H-pyrazol-4-yl)-4-(difluoromethoxy)benzamide]: the EC50 at human FPR2 was 3 nM; on human FPR1, > 10 µM.

As to `COc1cc(N2CCOCC2)nc(-n2c(=O)c(NC(=O)c3ccc(OC(F)F)cc3)c(-c3c(F)cc(OC)cc3F)n2C)c1` [Example 364, N-(5-(2,6-Difluoro-4-methoxyphenyl)-2-(4-methoxy-6-morpholinopyridin-2-yl)-1-methyl-3-oxo-2,3-dihydro-1H-pyrazol-4-yl)-4-(difluoromethoxy)benzamide], the EC50 at human FPR2 stood at 62 nM; on human FPR1, 2.1 µM.

As to `COc1cc(C2CCN(S(C)(=O)=O)CC2)nc(-n2c(=O)c(NC(=O)c3ccc(OC(F)F)cc3)c(-c3c(F)cc(OC)cc3F)n2C)c1` [Example 366, N-(5-(2,6-Difluoro-4-methoxyphenyl)-2-(4-methoxy-6-(1-(methylsulfonyl)piperidin-4-yl)pyridin-2-yl)-1-methyl-3-oxo-2,3-dihydro-1H-pyrazol-4-yl)-4-(difluoromethoxy)benzamide], the results for the concentration for a half-maximal effect (EC50) on human FPR2 and on human FPR1 were 7 nM and > 10 µM, respectively.

With `COc1cc(C2CCN(CCO)CC2)nc(-n2c(=O)c(NC(=O)c3ccc(OC(F)F)cc3)c(-c3c(F)cc(OC)cc3F)n2C)c1` [Example 368, N-(5-(2,6-Difluoro-4-methoxyphenyl)-2-(6-(1-(2-hydroxyethyl)piperidin-4-yl)-4-methoxypyridin-2-yl)-1-methyl-3-oxo-2,3-dihydro-1H-pyrazol-4-yl)-4-(difluoromethoxy)benzamide], the results for the half-maximal effective concentration (EC50) on human FPR2 and at human FPR1 were 7 nM and > 10 µM, respectively.

In the case of `COc1cc(F)c(-c2c(NC(=O)c3ccc(OC(F)F)cc3)c(=O)n(-c3nc(C(F)(F)F)ccc3OCC3CCOC3)n2C)c(F)c1` (centres unmarked) [Example 369, N-(5-(2,6-Difluoro-4-methoxyphenyl)-1-methyl-3-oxo-2-(3-((tetrahydrofuran-3-yl)methoxy)-6-(trifluoromethyl)pyridin-2-yl)-2,3-dihydro-1H-pyrazol-4-yl)-4-(difluoromethoxy)benzamide], the EC50 at human FPR2 was 5 nM; on human FPR1 it was > 10 µM.

As for `COc1cc(F)c(-c2c(NC(=O)c3ccc(OC(F)F)cc3)c(=O)n(-c3nc(C(F)(F)F)ccc3OCC3CCOC3)n2C)c(F)c1` (centres unmarked) [Example 370, N-(5-(2,6-Difluoro-4-methoxyphenyl)-1-methyl-3-oxo-2-(3-((tetrahydrofuran-3-yl)methoxy)-6-(trifluoromethyl)pyridin-2-yl)-2,3-dihydro-1H-pyrazol-4-yl)-4-(difluoromethoxy)benzamide], the EC50 was 5 nM at human FPR2 and > 10 µM on human FPR1.

For the molecule `COc1cc(F)c(-c2c(NC(=O)c3ccc(OC(F)F)cc3)c(=O)n(-c3nc(C(F)(F)F)ccc3OC)n2C)c(F)c1` [Example 371, N-(5-(2,6-Difluoro-4-methoxyphenyl)-2-(3-methoxy-6-(trifluoromethyl)pyridin-2-yl)-1-methyl-3-oxo-2,3-dihydro-1H-pyrazol-4-yl)-4-(difluoromethoxy)benzamide], the half-maximal effective concentration (EC50) at human FPR2 turned out to be 6 nM; on human FPR1, 0.24 µM.

Turning to `COc1cc(F)c(-c2c(NC(=O)c3ccc(OC(F)F)cc3)c(=O)n(-c3nc(C(F)(F)F)ccc3OCCO)n2C)c(F)c1` [Example 372, N-(5-(2,6-Difluoro-4-methoxyphenyl)-2-(3-(2-hydroxyethoxy)-6-(trifluoromethyl)pyridin-2-yl)-1-methyl-3-oxo-2,3-dihydro-1H-pyrazol-4-yl)-4-(difluoromethoxy)benzamide], the EC50 at human FPR2 was 6 nM; at human FPR1, > 10 µM.

For `COc1cc(F)c(-c2c(NC(=O)c3ccc(OC(F)F)cc3)c(=O)n(-c3nc(C(F)(F)F)ccc3OC[C@H](C)O)n2C)c(F)c1` [Example 373, (S)-N-(5-(2,6-Difluoro-4-methoxyphenyl)-2-(3-(2-hydroxypropoxy)-6-(trifluoromethyl)pyridin-2-yl)-1-methyl-3-oxo-2,3-dihydro-1H-pyrazol-4-yl)-4-(difluoromethoxy)benzamide], the EC50 at human FPR2 was 16 nM; at human FPR1, > 10 µM.

In the case of `COc1cc(F)c(-c2c(NC(=O)c3ccc(OC(F)F)cc3)c(=O)n(-c3nc(C(F)(F)F)ccc3NCCO)n2C)c(F)c1` [Example 374, N-(5-(2,6-Difluoro-4-methoxyphenyl)-2-(3-((2-hydroxyethyl)amino)-6-(trifluoromethyl)pyridin-2-yl)-1-methyl-3-oxo-2,3-dihydro-1H-pyrazol-4-yl)-4-(difluoromethoxy)benzamide], the values for the 50% effective concentration (EC50) at human FPR2 and on human FPR1 were 22 nM and 0.32 µM, respectively.

In the case of `COc1cc(F)c(-c2c(NC(=O)c3ccc(OC(F)F)cc3)c(=O)n(-c3nc(C(F)(F)F)ccc3N(C)CCO)n2C)c(F)c1` [Example 375, N-(5-(2,6-Difluoro-4-methoxyphenyl)-2-(3-((2-hydroxyethyl)(methyl)amino)-6-(trifluoromethyl)pyridin-2-yl)-1-methyl-3-oxo-2,3-dihydro-1H-pyrazol-4-yl)-4-(difluoromethoxy)benzamide], the EC50 was 3 nM on human FPR2 and > 10 µM on human FPR1.

Consider `COc1cc(C)nc(-n2c(=O)c(NC(=O)c3ccc(OC(F)F)cc3)c(-c3c(F)cc(OC)cc3F)n2C)c1` [Example 376, N-(5-(2,6-Difluoro-4-methoxyphenyl)-2-(4-methoxy-6-methylpyridin-2-yl)-1-methyl-3-oxo-2,3-dihydro-1H-pyrazol-4-yl)-4-(difluoromethoxy)benzamide], for which the figures for the EC50 on human FPR2 and on human FPR1 were 5 nM and > 10 µM, respectively.
